For test [1], the system named is S. cerevisiae BY4741. The note with it: for 17 h growth: YNB Ethanol. On the procedure: Cells are grown in the medium of choice, generally one requiring respiration. In the case of Malassezia furfur that medium is modified Dixon medium (mDixon) (per one liter: 36 g malt extract (Difco 0186-17), 20 g ox bile (provided by American Laboratories, Inc., of Omaha, Nebraska, as Lot No. 03130792), 10 ml Tween 40 (Aldrich 27435-6), 6 g peptone (Difco 0118-17), 2 ml oleic acid (Baker 2114-01), and 2 ml glycerol (Sigma G-7893)). [Candida and YPG, Saccharomyces and YNB (without amino acids) to which we added 40 μg/ml each of uracil, histidine, and methionine plus 130 μg/ml leucine and 2% ethanol and 0.1% yeast extract.] Conventional medium may also be used for other microbials. Starting cultures are prepared by diluting a fresh overnight culture that is out of log phase 1:100 and incubating with shaking at 31° C. in a 250 mL shake flask (Corning, 431144) with 20 mL medium shaking at 200-250 rpm for about 3 hours to ensure the cells had returned to growth phase. At this time, the test agent is added to the flasks to afford the final concentration for testing. The cells are cultured for 1 hour with the test agent. At this time, the cells typically have an OD at 600 nm in the range of 0.25 to 0.8. Generally, we isolate 2.5 OD*mLs of cells calculated as desired OD*mLs divided by the OD600 of the cells. These media samples are centrifuged (Beckman Coulter Allegra™ 6KR centrifuge) 10 minutes at RT at 3200 rpm to pellet the cells. The supernatant is poured off and the tubes are set upside down on a folded paper towel to drain off the remains of media. Two and one half milliliters of PBS (Gibco, pH 7.4, without magnesium chloride or calcium chloride, 14190-144) is added and the cells resuspended. One mL of cells is transferred to each of two 12-well plates (Falcon, polystyrene, 353043). One plate is stored in the dark and the other is exposed to the light with the plate cover on the plate. […] When the light exposure is completed, the samples are mixed by slowly vortexing or pipetting and 0.65 mL of each sample is transferred to 13 mL of medium for overnight growth at 31° C. with shaking. The following morning, typically 18 hours later, the ODs at 600 nm are determined. Successful materials are those that show at least a 50% reduction in growth after light exposure relative to a dark sample.
S. cerevisiae is exposed to light from LED flashlights of the indicated wavelength as well as a painter's light/worklight, commonly found at a hardware store, which provides a broad spectrum of wavelengths of light. Yeast has been pretreated as indicated, prior to light exposure.

The test system of test [2] is C. albicans cells. In words: Candida albicans spot plating after Piroctone Olamine and 409 nm light (Table 4). In kind it is cell-based. Details: key to spot plated growth (score): +: a continuous fungal lawn; +/−: a lawn with breaks allowing the agar to show; −: 0 to 5 colonies. How it is done:
Potentiation of Piroctone Olamine by light exposure is also observed in Candida albicans. […] Cells are then diluted as indicated in the left column, and spot plated. Resulting growth is then scored, as explained above.

Where two headings read alike, the source gives them in different places.

As to `[O-]n1ccccc1=S.[O-]n1ccccc1=S.[Zn+2]` [ZPT, zinc salt of 1-hydroxy-2-pyridinethione], the 17 h growth is listed as 0.7205 in test [1] (0.8 ppm, 395 nm light); 1.418 in test [1] (0.8 ppm, 520 nm light); 1.332 in test [1] (0.8 ppm, 580 nm light); 0.525 in test [1] (0.8 ppm, Broad Spectrum light); 1.5185 in test [1] (0.8 ppm, Dark); 0.3435 in test [1] (1.6 ppm, 395 nm light). For the same compound, the 17 h growth is given as 1.3615 in test [1] (1.6 ppm, 520 nm light); 0.9245 in test [1] (1.6 ppm, 580 nm light); 0.303 in test [1] (1.6 ppm, Broad Spectrum light); 1.525 in test [1] (1.6 ppm, Dark). Moreover, the “sensitivity of treated yeast to light” value in test [1] (ZPT-treated, LED flashlights 395, 520, 580 nm) is on record as “sensitive to a 395 nm flashlight, but not two other wavelengths of light”.

On to `Cc1cc(CC(C)CC(C)(C)C)n(O)c(=O)c1.NCCO` (stereo not drawn) [Piroctone Olamine, 1-Hydroxy-4-methyl-6-(2,4,4-trimethylpentyl)-2-pyridone monoethanolamine salt], for which the “spot plated growth (score)” value was “+” in test [2] (6 ppm, dilution 1:2, 15 minute 409 nm light); “+” in test [2] (6 ppm, dilution 1:2, Dark); “+” in test [2] (6 ppm, dilution 1:20, 15 minute 409 nm light); “+” in test [2] (6 ppm, dilution 1:20, Dark); “+/−” in test [2] (6 ppm, dilution 1:200, 15 minute 409 nm light); “+/−” in test [2] (6 ppm, dilution 1:200, Dark). For the same compound, the “spot plated growth (score)” value in test [2] (6 ppm, dilution 1:2000, 15 minute 409 nm light) is “+/−”; in test [2] (6 ppm, dilution 1:2000, Dark), “+/−”; in test [2] (12 ppm, dilution 1:2, 15 minute 409 nm light), “+”; in test [2] (12 ppm, dilution 1:2, Dark) it was “+”; in test [2] (12 ppm, dilution 1:20, 15 minute 409 nm light), “+/−”; in test [2] (12 ppm, dilution 1:20, Dark), “+”. Besides, the “spot plated growth (score)” value in test [2] (12 ppm, dilution 1:200, 15 minute 409 nm light) is recorded as “+/−”; in test [2] (12 ppm, dilution 1:200, Dark), “+/−”; in test [2] (12 ppm, dilution 1:2000, 15 minute 409 nm light) it was “− (0 to 5 colonies)”; in test [2] (12 ppm, dilution 1:2000, Dark), “+/−”; in test [2] (24 ppm, dilution 1:2, 15 minute 409 nm light) it was “+”; in test [2] (24 ppm, dilution 1:2, Dark), “+”. The “spot plated growth (score)” value in test [2] (24 ppm, dilution 1:20, 15 minute 409 nm light) is reported as “+/−”; in test [2] (24 ppm, dilution 1:20, Dark), “+”; in test [2] (24 ppm, dilution 1:200, 15 minute 409 nm light) it was “+/−”; in test [2] (24 ppm, dilution 1:200, Dark) it was “+/−”; in test [2] (24 ppm, dilution 1:2000, 15 minute 409 nm light), “− (0 to 5 colonies)”; in test [2] (24 ppm, dilution 1:2000, Dark), “+/−”. Also, the “growth with the addition of light” value in test [2] (12 and 24 ppm dose, 409 nm light 15 min) is recorded as “complete inhibition of growth”.

(Values after patent US11771765B2, “Light augmented treatment method” (The Procter & Gamble Company, priority 2019, dated 2023).)
